Assays:
[1] = target: T1, PcpI (Pseudomonas putida, UniProt A0A4D6XHR0); test: isothermal titration calorimetry; assay type: binding
T1 construct: gene E6B08_28110; LBD (amino acids 38–174)
T1 sequence (A0A4D6XHR0 38-174): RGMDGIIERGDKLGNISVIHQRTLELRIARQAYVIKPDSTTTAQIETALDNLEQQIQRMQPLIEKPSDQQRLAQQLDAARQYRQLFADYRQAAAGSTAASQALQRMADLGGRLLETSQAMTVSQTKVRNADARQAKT

[2] = target: T2, E6B08_RS28125 (solute binding protein); test: isothermal titration calorimetry (and DSF); set-up: species or system Pseudomonas putida
T2 construct: recombinant from pET28b(+), without the predicted signal peptide

[3] = target: T1, PcpI; test: isothermal titration calorimetry; DSF Tm shift […]°C; assay type: binding
Text: Exothermic heats were observed that decreased as protein saturation progressed

SMILES | Kd [2] [µM] | other results
Cc1cccc(C(=O)O)c1 [3-methylbenzoate] |  | Kd ([1]; read-out: Kd): 91 ± 8 µM
N=C(N)NCCC[C@H](N)C(=O)O [L-Arg] | 29.5 ± 3 | 
N[C@@H](Cc1c[nH]cn1)C(=O)O [L-His] | 3.3 ± 0.3 | 
NCCC[C@H](N)C(=O)O [L-ornithine] | 0.9 ± 0.1 | 
O=C(O)c1ccccc1 [benzoate] |  | Kd [1]: 171 ± 14 µM
O=C(O)c1ccccc1O [salicylate] |  | Kd [3]: 826 ± 34 µM
